{
  "source": "patent US7771727B2",
  "about": "“Conjugates of therapeutic or cytotoxic agents and biologically active peptides” (The Administrators of the Tulane Educational Fund, priority 2002, dated 2010)",
  "key": {"[1]": {"system": "human neuroblastoma IMR32 cells (somatostatin receptor overexpression)", "test": "MTT cytotoxicity assay, IMR-32 cells", "conditions": "for cytotoxic activity: 3 days", "procedure": "The cytotoxic activities of these conjugates were measured using a standard MTT assay kit (Promega Corporation, Madison, Wis.). Each compound was incubated for 3 days with human neuroblastoma IMR32 cells (somatostatin receptor overexpression) at different concentrations in quadruplate and IC50's were generated from the dose-response curves (FIG. 2)."}, "physchem": {"test": "physchem", "conditions": "for Half Life Phosphate Buffer / half-life: buffer", "procedure": "(§1) Each peptide conjugate was subjected to phosphate buffer and rat serum stability studies. The analogues were incubated in either 0.1 M phosphate buffer or fresh rat serum at 37° C. and aliquots were taken at different time points and examined by HPLC."}, "in vitro": {"test": "in vitro", "procedure": "as §1"}, "[2]": {"system": "GH release from monolayer cultures of rat pituitary cells", "format": "cell-based", "conditions": "read-out: Growth Hormone Inhibition IC50"}, "tumor": {"system": "tumor", "test": "Preliminary tumor bearing animal studies", "format": "in vivo", "conditions": "repeated intraperitoneal administration"}, "[3]": {"conditions": "camptothecin: tertiary hydroxyl, ring position 20; combretastatin: phenolic hydroxyl; cited from earlier work"}, "[4]": {"system": "NCI-H69 small cell lung carcinomas (expression of SSTR2)", "conditions": "nude mice; doses far below the maximum tolerated equivalent doses of camptothecin alone"}, "[5]": {"conditions": "phosphate buffer, length of the experiment 50 h"}, "[6]": {"conditions": "Homo sapiens, IMR-32, 72 h, read-out: Cytotoxicity IC50, IMR-32 Cells"}},
  "note": "Entries after “also recorded” stand apart in the source; their conditions may differ. Read-outs that look alike come from different tables or passages of the source. Numbered stars: 1 amine (or outer) side, 2 acyl side, 3 side chain; on linkers, the order of the positions; unused ones are H or OH. Bridge positions count the residues as written; N and C are the ends. Square brackets hold non-standard residues; d marks the D form. Peptide text beside a SMILES is read from it. * marks the point of attachment. Camptothecin(20S-OCO) = CC[C@@]1(OC(=O)*)C(=O)OCc2c1cc1n(c2=O)Cc2cc3ccccc3nc2-1; NGly(2-(methylamino)ethyl) = CN(CCN(CC(=O)[*:2])[*:1])[*:3]; X1 = COc1ccc(/C=C\\c2cc(OC)c(OC)c(OC)c2)cc1OC(=O)*; Gly(N-2-aminoethyl) = NCCNCC(=O)O; X2 = CN(C)CCN(CC(=O)[*:2])[*:1]; Gly(N(CH2)3NH2) = NCCCNCC(=O)O; Gly(N-CH2CH2OH) = O=C(O)CNCCO; Nle = CCCC[C@H](N)C(=O)O",
  "data": [
    {"smiles": "CCCC[C@H](NC(=O)[C@@H](CO)NC(=O)CN(CCCN)C(=O)O[C@]1(CC)C(=O)OCc2c1cc1n(c2=O)Cc2cc3ccccc3nc2-1)C(=O)N[C@H](Cc1ccc(O)cc1)C(=O)N[C@H](CO)C(=O)N[C@H]1CSSC[C@@H](C(=O)N[C@H](C(N)=O)[C@@H](C)O)NC(=O)[C@H]([C@@H](C)O)NC(=O)[C@H](CCCCN)NC(=O)[C@@H](Cc2c[nH]c3ccccc23)NC(=O)[C@H](Cc2ccccc2)NC1=O", "note": "[Compound 4] ({Camptothecin(20S-OCO)}-[Gly(N(CH2)3NH2)][dS][Nle][dY][dS]CF[dW]KTCT-NH2; disulfide 6-11)", "values": [
      {"measurement": "IC50", "setting": "[1]; human", "result": "> 1000", "unit": "nM"},
      {"measurement": "buffer stability", "setting": "physchem; [5]", "result": "complete buffer stability"},
      {"measurement": "half-life", "setting": "in vitro; rat, serum", "result": 72, "unit": "h"},
      {"measurement": "rat serum stability", "setting": "in vitro; rat, serum", "result": "most stable"},
      {"measurement": "IC50", "setting": "[2]; rat pituitary cells", "result": "0.26 ± 0.03", "unit": "nM"}
    ]},
    {"smiles": "CCCC[C@H](NC(=O)[C@@H](CO)NC(=O)CN(CCO)C(=O)O[C@]1(CC)C(=O)OCc2c1cc1n(c2=O)Cc2cc3ccccc3nc2-1)C(=O)N[C@H](Cc1ccc(O)cc1)C(=O)N[C@H](CO)C(=O)N[C@H]1CSSC[C@@H](C(=O)N[C@H](C(N)=O)[C@@H](C)O)NC(=O)[C@H]([C@@H](C)O)NC(=O)[C@H](CCCCN)NC(=O)[C@@H](Cc2c[nH]c3ccccc23)NC(=O)[C@H](Cc2ccccc2)NC1=O", "note": "[Compound 5] ({Camptothecin(20S-OCO)}-[Gly(N-CH2CH2OH)][dS][Nle][dY][dS]CF[dW]KTCT-NH2; disulfide 6-11)", "values": [
      {"measurement": "IC50", "setting": "[1]; human", "result": "> 1000", "unit": "nM"},
      {"measurement": "IC50", "setting": "[2]", "result": "0.49 ± 0.1", "unit": "nM"}
    ]},
    {"smiles": "CCCC[C@H](NC(=O)[C@@H](CO)NC(=O)CN(CCN(C)C)C(=O)O[C@]1(CC)C(=O)OCc2c1cc1n(c2=O)Cc2cc3ccccc3nc2-1)C(=O)N[C@H](Cc1ccc(O)cc1)C(=O)N[C@H](CO)C(=O)N[C@H]1CSSC[C@@H](C(=O)N[C@H](C(N)=O)[C@@H](C)O)NC(=O)[C@H]([C@@H](C)O)NC(=O)[C@H](CCCCN)NC(=O)[C@@H](Cc2c[nH]c3ccccc23)NC(=O)[C@H](Cc2ccccc2)NC1=O", "note": "[Compound 3] ({Camptothecin(20S-OCO)}-[X2][dS][Nle][dY][dS]CF[dW]KTCT-NH2; disulfide 6-11)", "values": [
      {"measurement": "IC50", "setting": "[1]; human", "result": "571 ± 48", "unit": "nM"},
      {"measurement": "buffer stability", "setting": "physchem", "result": "complete buffer stability"},
      {"measurement": "Half Life Phosphate Buffer", "setting": "physchem", "result": "Stable"},
      {"measurement": "rat serum stability", "setting": "in vitro", "result": "most stable"},
      {"measurement": "half-life", "setting": "in vitro; rat, serum", "result": 59, "unit": "h"},
      {"measurement": "IC50", "setting": "[2]", "result": "0.3 ± 0.04", "unit": "nM"}
    ]},
    {"smiles": "CCCC[C@H](NC(=O)[C@@H](CO)NC(=O)CN(CCN)C(=O)O[C@]1(CC)C(=O)OCc2c1cc1n(c2=O)Cc2cc3ccccc3nc2-1)C(=O)N[C@H](Cc1ccc(O)cc1)C(=O)N[C@H](CO)C(=O)N[C@H]1CSSC[C@@H](C(=O)N[C@H](C(N)=O)[C@@H](C)O)NC(=O)[C@H]([C@@H](C)O)NC(=O)[C@H](CCCCN)NC(=O)[C@@H](Cc2c[nH]c3ccccc23)NC(=O)[C@H](Cc2ccccc2)NC1=O", "note": "[Compound 1, camptothecin-carbonyl-N-(2-aminoethyl)-glycine-D-Ser-Nle-D-Tyr-D-Ser-cyclo[Cys-Phe-D-Trp-Lys-Thr-Cys]-Thr-amide] ({Camptothecin(20S-OCO)}-[Gly(N-2-aminoethyl)][dS][Nle][dY][dS]CF[dW]KTCT-NH2; disulfide 6-11)", "values": [
      {"measurement": "cytotoxic potency relative to compound 2", "setting": "[1]; IMR32 cells", "result": "seven times less potent than compound 2"},
      {"measurement": "cytotoxic activity", "setting": "[1]; IMR32 cells", "result": "next most potent; also recorded: high cytotoxicity"},
      {"measurement": "stability to cell media incubation conditions", "setting": "[1]; cell media", "result": "very stable"},
      {"measurement": "IC50", "setting": "[1]; human", "result": "374 ± 18", "unit": "nM"},
      {"measurement": "buffer stability", "setting": "physchem; [5]", "result": "complete buffer stability"},
      {"measurement": "half-life", "setting": "in vitro; rat, serum", "result": 106, "unit": "h"},
      {"measurement": "rat serum stability", "setting": "in vitro; rat, serum", "result": "most stable"},
      {"measurement": "IC50", "setting": "[2]; rat pituitary cells", "result": "0.32 ± 0.02", "unit": "nM"},
      {"measurement": "cytotoxic effect in the tumor", "setting": "tumor", "result": "equally effective"}
    ]},
    {"smiles": "COc1ccc(C[C@@H](O)c2cc(OC)c(OC)c(OC)c2)cc1O", "note": "[Combretastatin, reference compound]", "values": [
      {"measurement": "IC50", "setting": "[1]; [6]", "result": 4.36, "unit": "nM"},
      {"measurement": "pKa of hydroxyl group", "setting": "[3]", "result": "approximately 10.3"}
    ]},
    {"smiles": "CCCC[C@H](NC(=O)[C@@H](CO)NC(=O)CN(CCNC)C(=O)O[C@]1(CC)C(=O)OCc2c1cc1n(c2=O)Cc2cc3ccccc3nc2-1)C(=O)N[C@H](Cc1ccc(O)cc1)C(=O)N[C@H](CO)C(=O)N[C@H]1CSSC[C@@H](C(=O)N[C@H](C(N)=O)[C@@H](C)O)NC(=O)[C@H]([C@@H](C)O)NC(=O)[C@H](CCCCN)NC(=O)[C@@H](Cc2c[nH]c3ccccc23)NC(=O)[C@H](Cc2ccccc2)NC1=O", "note": "[Compound 2, camptothecin-carbonyl-N-(N-methyl-2-aminoethyl)-glycine-D-Ser-Nle-D-Tyr-D-Ser-cyclo[Cys-Phe-D-Trp-Lys-Thr-Cys]-Thr-amide] ({Camptothecin(20S-OCO)}-[NGly(2-(methylamino)ethyl)][dS][Nle][dY][dS]CF[dW]KTCT-NH2; disulfide 6-11)", "values": [
      {"measurement": "stability to cell media incubation conditions", "setting": "[1]", "result": "very stable"},
      {"measurement": "IC50", "setting": "[1]; human", "result": "54.2 ± 6", "unit": "nM"},
      {"measurement": "Half Life Phosphate Buffer", "setting": "physchem", "result": 123, "unit": "h"},
      {"measurement": "half-life", "setting": "physchem", "result": "~120", "unit": "h"},
      {"measurement": "Half-Life Rat Serum", "setting": "in vitro; rat, serum", "result": 18, "unit": "h"},
      {"measurement": "half-life", "setting": "in vitro; rat, serum", "result": 18, "unit": "h"},
      {"measurement": "IC50", "setting": "[2]", "result": "0.27 ± 0.02", "unit": "nM"},
      {"measurement": "cytotoxic effect in the tumor", "setting": "tumor", "result": "equally effective"},
      {"measurement": "growth of transplanted NCI-H69 small cell lung carcinomas", "setting": "[4]", "result": "significantly stabilize the growth"}
    ]},
    {"smiles": "CC[C@@]1(O)C(=O)OCc2c1cc1n(c2=O)Cc2cc3ccccc3nc2-1", "note": "[Camptothecin, reference compound]", "values": [
      {"measurement": "IC50", "setting": "[1]; [6]", "result": "2.21 ± 0.44", "unit": "nM"},
      {"measurement": "pKa of hydroxyl group", "setting": "[3]", "result": "approximately 18"}
    ]},
    {"smiles": "CCCC[C@H](NC(=O)[C@@H](CO)NC(=O)CN(CCN)C(=O)Oc1cc(/C=C\\c2cc(OC)c(OC)c(OC)c2)ccc1OC)C(=O)N[C@H](Cc1ccc(O)cc1)C(=O)N[C@H](CO)C(=O)N[C@H]1CSSC[C@@H](C(=O)N[C@H](C(N)=O)[C@@H](C)O)NC(=O)[C@H]([C@@H](C)O)NC(=O)[C@H](CCCCN)NC(=O)[C@@H](Cc2c[nH]c3ccccc23)NC(=O)[C@H](Cc2ccccc2)NC1=O", "note": "[Compound 6, combretastatin-carbonyl-N-(2-aminoethyl)-glycine-D-Ser-Me-D-Tyr-D-Ser-cyclo[Cys-Phe-D-Trp-Lys-Thr-Cys]-Thr-amide] (X1-[Gly(N-2-aminoethyl)][dS][Nle][dY][dS]CF[dW]KTCT-NH2; disulfide 6-11)", "values": [
      {"measurement": "cytotoxic activity", "setting": "[1]; IMR32 cells", "result": "most cytotoxic"},
      {"measurement": "IC50", "setting": "[1]; read-out: Cytotoxicity IC50, IMR-32 Cells, 3 days incubation, MTT assay", "result": "2.79 ± 0.33", "unit": "nM"},
      {"measurement": "half-life", "setting": "physchem", "result": 30, "unit": "h"},
      {"measurement": "conjugate that is free cytotoxin after 3 days", "setting": "physchem; from stability data in buffer, after 3 days", "result": 50, "unit": "%"},
      {"measurement": "Half-Life Rat Serum", "setting": "in vitro; fresh rat serum, 37° C.", "result": 4, "unit": "h"},
      {"measurement": "half-life", "setting": "in vitro; rat, serum", "result": 4, "unit": "h"},
      {"measurement": "IC50", "setting": "[2]; rat pituitary cells", "result": "0.31 ± 0.1", "unit": "nM"}
    ]}
  ]
}
